Measured values from the supplement of paper PMC10307832.

Tests used:
Assay in all cases: relative viability (nuclei count vs DMSO), 5 days (fraction); higher = more cells survive
NCI-H1666 = system: NCI-H1666
How it was run: (§1)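 Lung cancer cell lines in 1536-well plates got either a single drug or a fixed anchor-drug dose together with five library-drug doses (not always all listed) in √10 steps, by pin tool, on the day after seeding. Nuclei were counted after 5 days, and relative viability is the treated-to-vehicle ratio of nuclei counts. Values are medians of duplicate plates.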

NCI-H2347 = system: NCI-H2347
How it was run: as §1

ABC-1 = system: ABC-1
How it was run: as §1

SW 1573 = system: SW 1573
How it was run: as §1

LK-2 = system: LK-2
How it was run: as §1

NCI-H1355 = system: NCI-H1355
How it was run: as §1

NCI-H727 = system: NCI-H727
How it was run: as §1

NCI-H1755 = system: NCI-H1755
How it was run: as §1

HCC-44 = system: HCC-44
How it was run: as §1

NCI-H1650 = system: NCI-H1650
How it was run: as §1

NCI-H358 = system: NCI-H358
How it was run: as §1

201T = system: 201T
How it was run: as §1

NCI-H838 = system: NCI-H838
How it was run: as §1

UMC-11 = system: UMC-11
How it was run: as §1

NCI-H2228 = system: NCI-H2228
How it was run: as §1

BEN = system: BEN
How it was run: as §1

NCI-H1734 = system: NCI-H1734
How it was run: as §1

NCI-H520 = system: NCI-H520
How it was run: as §1

LOU-NH91 = system: LOU-NH91
How it was run: as §1

NCI-H2009 = system: NCI-H2009
How it was run: as §1

NCI-H2405 = system: NCI-H2405
How it was run: as §1

O=C(O)CCCCC(CCSCc1ccccc1)SCc1ccccc1 (centres undefined) [CPI-613] + CCNC(=O)c1noc(-c2cc(C(C)C)c(O)cc2O)c1-c1ccc(CN2CCOCC2)cc1 [Luminespib] (partner 0.01 µM)
relative viability (NCI-H1666; first compound 5 µM): 0.992
relative viability (NCI-H1666; first compound 15.81 µM): 1.01
relative viability (NCI-H1666; first compound 50 µM): 1.12
relative viability (NCI-H1666; first compound 158.11 µM): 0.223
relative viability (NCI-H1666; first compound 500 µM): 0.131
relative viability (NCI-H2347; first compound 5 µM): 0.279
relative viability (NCI-H2347; first compound 15.81 µM): 0.344
relative viability (NCI-H2347; first compound 50 µM): 0.746
relative viability (NCI-H2347; first compound 158.11 µM): 0.548
relative viability (NCI-H2347; first compound 500 µM): 0.833
relative viability (ABC-1; first compound 5 µM): 0.629
relative viability (ABC-1; first compound 50 µM): 0.776
relative viability (ABC-1; first compound 158.11 µM): 0.185
relative viability (ABC-1; first compound 500 µM): 0.183
relative viability (SW 1573; first compound 5 µM): 0.254
relative viability (SW 1573; first compound 15.81 µM): 0.295
relative viability (SW 1573; first compound 50 µM): 0.138
relative viability (SW 1573; first compound 158.11 µM): 0.0967
relative viability (SW 1573; first compound 500 µM): 0.0725
relative viability (LK-2; first compound 5 µM): 0.19
relative viability (LK-2; first compound 15.81 µM): 0.198
relative viability (LK-2; first compound 50 µM): 0.189
relative viability (LK-2; first compound 158.11 µM): 0.153
relative viability (LK-2; first compound 500 µM): 0.172
relative viability (NCI-H1355; first compound 5 µM): 0.692
relative viability (NCI-H1355; first compound 15.81 µM): 0.701
relative viability (NCI-H1355; first compound 50 µM): 0.691
relative viability (NCI-H1355; first compound 158.11 µM): 0.25
relative viability (NCI-H1355; first compound 500 µM): 0.35
relative viability (NCI-H727; first compound 5 µM): 0.274
relative viability (NCI-H727; first compound 15.81 µM): 0.641
relative viability (NCI-H727; first compound 50 µM): 0.286
relative viability (NCI-H727; first compound 158.11 µM): 0.188
relative viability (NCI-H727; first compound 500 µM): 0.115
relative viability (NCI-H1755; first compound 5 µM): 0.613
relative viability (NCI-H1755; first compound 15.81 µM): 0.508
relative viability (NCI-H1755; first compound 50 µM): 0.24
relative viability (NCI-H1755; first compound 158.11 µM): 0.34
relative viability (NCI-H1755; first compound 500 µM): 0.185
relative viability (HCC-44; first compound 5 µM): 0.964
relative viability (HCC-44; first compound 15.81 µM): 0.939
relative viability (HCC-44; first compound 50 µM): 1.04
relative viability (HCC-44; first compound 158.11 µM): 0.495
relative viability (HCC-44; first compound 500 µM): 0.121
relative viability (NCI-H1650; first compound 5 µM): 0.213
relative viability (NCI-H1650; first compound 15.81 µM): 0.224
relative viability (NCI-H1650; first compound 50 µM): 0.194
relative viability (NCI-H1650; first compound 158.11 µM): 0.168
relative viability (NCI-H1650; first compound 500 µM): 0.0166
relative viability (NCI-H358; first compound 5 µM): 0.287
relative viability (NCI-H358; first compound 15.81 µM): 0.249
relative viability (NCI-H358; first compound 50 µM): 0.356
relative viability (NCI-H358; first compound 158.11 µM): 0.414
relative viability (NCI-H358; first compound 500 µM): 0.408
relative viability (201T; first compound 5 µM): 1.05
relative viability (201T; first compound 15.81 µM): 0.973
relative viability (201T; first compound 50 µM): 1.01
relative viability (201T; first compound 158.11 µM): 0.258
relative viability (201T; first compound 500 µM): 0.0468
relative viability (NCI-H838; first compound 5 µM): 0.249
relative viability (NCI-H838; first compound 15.81 µM): 0.243
relative viability (NCI-H838; first compound 50 µM): 0.24
relative viability (NCI-H838; first compound 158.11 µM): 0.122
relative viability (NCI-H838; first compound 500 µM): 0.0891
relative viability (UMC-11; first compound 5 µM): 0.977
relative viability (UMC-11; first compound 15.81 µM): 1.02
relative viability (UMC-11; first compound 50 µM): 0.955
relative viability (UMC-11; first compound 158.11 µM): 0.148
relative viability (UMC-11; first compound 500 µM): 0.112
relative viability (NCI-H2228; first compound 5 µM): 0.145
relative viability (NCI-H2228; first compound 15.81 µM): 0.205
relative viability (NCI-H2228; first compound 50 µM): 0.137
relative viability (NCI-H2228; first compound 158.11 µM): 0.141
relative viability (NCI-H2228; first compound 500 µM): 0.0612
relative viability (BEN; first compound 5 µM): 0.619
relative viability (BEN; first compound 15.81 µM): 0.362
relative viability (BEN; first compound 50 µM): 0.484
relative viability (BEN; first compound 158.11 µM): 0.292
relative viability (BEN; first compound 500 µM): 0.149
relative viability (NCI-H1734; first compound 5 µM): 0.197
relative viability (NCI-H1734; first compound 15.81 µM): 0.194
relative viability (NCI-H1734; first compound 50 µM): 0.164
relative viability (NCI-H1734; first compound 158.11 µM): 0.165
relative viability (NCI-H1734; first compound 500 µM): 0.107
relative viability (NCI-H520; first compound 5 µM): 0.196
relative viability (NCI-H520; first compound 15.81 µM): 0.204
relative viability (NCI-H520; first compound 50 µM): 0.214
relative viability (NCI-H520; first compound 158.11 µM): 0.197
relative viability (NCI-H520; first compound 500 µM): 0.181
relative viability (LOU-NH91; first compound 5 µM): 0.344
relative viability (LOU-NH91; first compound 15.81 µM): 0.325
relative viability (LOU-NH91; first compound 50 µM): 0.323
relative viability (LOU-NH91; first compound 158.11 µM): 0.309
relative viability (LOU-NH91; first compound 500 µM): 0.34
relative viability (NCI-H2009; first compound 5 µM): 1.06
relative viability (NCI-H2009; first compound 15.81 µM): 0.954
relative viability (NCI-H2009; first compound 50 µM): 0.936
relative viability (NCI-H2009; first compound 158.11 µM): 0.179
relative viability (NCI-H2009; first compound 500 µM): 0.012
relative viability (NCI-H2405; first compound 5 µM): 0.657
relative viability (NCI-H2405; first compound 15.81 µM): 0.711
relative viability (NCI-H2405; first compound 50 µM): 0.622
relative viability (NCI-H2405; first compound 158.11 µM): 0.736
relative viability (NCI-H2405; first compound 500 µM): 0.727
